Key:
Pythium ultimum [1] = experiment: Pea test in soil inoculated with Pythium ultimum (Example 2); format: in vivo; parameters: key to Root evaluation (1-4): 4 = white roots, no necroses … 1 = severe necroses, roots rotted; conditions: for Number of sound peas after 3 wks.: 25 grains seeded; for Root evaluation (1-4): 3 weeks
Experimental: Steamed compost soil was inoculated with mycelium of Pythium ultimum. […] The following table lists the number of germinated sound peas, the weight of the fresh plant, and a root evaluation after a cultivation period of 3 weeks at 22°-25° C.
4 = white roots, without fungus necroses
3 = white roots, slight fungus necroses
2 = brown roots, more intense fungus necroses
1 = severe fungus necroses, roots rotted

Rhizoctonia solani [2] = experiment: Pea test in soil inoculated with Rhizoctonia solani (Example 3); format: in vivo; conditions: for Number of sound peas after 3 wks.: 25 grains seeded; for Root evaluation (1-4): 3 weeks
Excerpt: Steamed compost soil was inoculated with mycelium of Rhizoctonia solani. After homogeneous mixture of the products with the infested soil, the products were present in the form of 20% powder preparations, the seeding of 25 grains of marrow peas of the variety Miracle of Kelvedon per concentration was effected without waiting period in clay dishes holding 1 liter of soil. The table lists the number of germinated sound peas, the weight of the fresh plant, and a root evaluation after a cultivation period of 3 weeks at 22°-25° C.

[3] = tested on: Fusarium oxysporum f. callistephi; experiment: Soil inoculated with Fusarium oxysporum f. callistephi, Callistephus chinensis host plants (Example 5); format: in vivo; conditions: four seedlings per concentration
Excerpt: Steamed compost soil was inoculated with a spore suspension of Fusarium oxysporum f. callistephi. After homogeneous mixture of the products with the infested soil, the products were present as 20% powder preparations, and after a waiting period of 8 days, there were set out per concentration four seedlings of Callistephus chinensis, master aster "Sun Ray" as host plants.

Pythium ultimum [4] = experiment: Limit concentration of soil-fungicidal effectiveness, Pythium ultimum infested soil, peas (Example 1); format: in vivo; conditions: Globisporangium ultimum, 20 to 23 days, 22°-25° C., germination at least 90% vs steamed soil
Experimental: Limit concentrations of the soil-fungicidal effectiveness at homogeneous mixture of the products with the infested soil. Basic condition in the evaluation are a sound root formation without fungus necroses and germination of the seed of at least 90% compared with the result obtained in steamed soil. Per concentration there were seeded 25 grains of peas of the variety "Miracle of Kelvedon" (marrow pea) without a waiting period. the cultivation time in the tests was 20 to 23 days at a temperature of 22°-25° C. Four commercial products were included in the test series.
Pythium ultimum: Steamed compost soil was inoculated with mycelium of Pythium ultimum

Aspergillus niger = experiment: Agar test, Aspergillus niger (Example 7); format: cell-based; conditions: 10 ppm in malt extract agar, 5 days at 22° C.; control 100
Experimental: (§1) The fungicidal action of the agents according to the invention was tested in artificial nutrient media against plant-pathogenic fungi in Petri dishes (agar test). The procedure was to sterilize the medium consisting of 2% malt extract and 1.5% agar-agar powder. Before the solidification of the medium, the active substances were added to it, mixing thoroughly, so that the medium received 10 parts of active substance per million (ppm). After the solidification of the medium, the latter was inoculated with a platinum dropper which contained 100 spores each of the fungi to be tested, and after 5 days at 22° C., an evaluation was made by measuring the diameter of the colonies in mm.

Stemphylium ilicis = experiment: Agar test, Stemphylium ilicis (Example 7); format: cell-based; conditions: 10 ppm in malt extract agar, 5 days at 22° C.; control 100
Experimental: as §1

Pythium ultimum [5] = experiment: Fungicidal effect in the vapor phase, Pythium ultimum (Example 11); format: cell-based; conditions: even at 1 mg active ingredient per liter; 3 days, 22° C.; 10% powder
Experimental: (§2) Nutrient medium inoculated with nycelium of Pythium ultimum or Rhizoctonia solani in open Petri dishes was placed in glass vessels 12 cm tall. First the quantity of product as a 10% powder preparation had been placed on the bottom of the glasses. After a reaction time of 3 days (Pythium) and 5 days (Rhizoctonia) at a temperature of 22° C. in the covered glass vessel, the mycelium growth was evaluated.

Rhizoctonia solani [6] = experiment: Fungicidal effect in the vapor phase, Rhizoctonia solani (Example 11); format: cell-based; conditions: even at 1 mg active ingredient per liter; 5 days, 22° C.; 10% powder
Experimental: as §2

Damping-off Fungi = experiment: Cotton seed disinfection in normal compost soil (Example 6); format: in vivo; conditions: 100 mg active ingr. per kg of seed, 15 days, 22°-25° C.
Experimental: Cotton seeds disinfected with 10% formulations were seeded in normal compost soil (Damping-off Fungi), 25 grains per concentration. After a cultivation time of 15 days at 22°-25° C., the number of germinated sound cotton seedlings and their weight as fresh plants were determined.

Meloidogyne incognita = experiment: Nematocidal action against root gall nematodes, cucumber (Example 8); format: in vivo; conditions: reduction of attack, 30 days
Experimental: The products as 20% powder preparations were homogeneously admixed with a compost soil heavily infested by root gall nematodes. Without a waiting period, 20 cucumber seeds per concentration were seeded. After a cultivation time of 30 days at a temperature of 23°-25° C., the nematocidal action was evaluated by counting the root galls formed in the waterbath. The following table states the reduction of attack in percent. In the control, an average of 90 root galls per seedling had formed.

[7] = 200 mg active ingr. per liter of soil
[8] = 10 mg active ingr. per liter of soil
[9] = 20 mg active ingr. per liter of soil
[10] = 30 mg active ingr. per liter of soil
[11] = 50 mg active ingr. per liter of soil
[12] = 100 mg active ingr. per liter of soil
[13] = 40 mg active substance per liter of soil
[14] = 60 mg active substance per liter of soil

Structure (SMILES): COc1cc(Cl)c(OC)cc1Cl [1,4-dichloro-2,5-dimethoxybenzene, reference compound]
- Number of sound peas after 3 wks. (Pythium ultimum [1]; [7]): 2
- Number of sound peas after 3 wks. (Rhizoctonia solani [2]; [8]): 0
- Number of sound peas after 3 wks. (Rhizoctonia solani [2]; [9]): 0
- Number of sound peas after 3 wks. (Rhizoctonia solani [2]; [10]): 21
- Number of sound peas after 3 wks. (Rhizoctonia solani [2]; 40 mg active ingr. per liter of soil): 22
- No. of attacked plants after 3 weeks [3, 11]: 4
- No. of attacked plants after 3 weeks [3, 12]: 4
- No. of attacked plants after 3 weeks [3, 7]: 4

Structure (SMILES): CS(=O)(=O)c1nnc(C(F)(F)F)s1 [Compound 1, 2-trifluoromethyl-5-methylsulfonyl-1,3,4-thiadiazole]
- minimal effective concentration (Pythium ultimum [4]): 10 µg/mL
- Root evaluation (1-4) (Pythium ultimum [1]; [8]): 4
- Root evaluation (1-4) (Pythium ultimum [1]; [9]): 4
- Number of sound peas after 3 wks. (Pythium ultimum [1]; [9]): 22
- Root evaluation (1-4) (Pythium ultimum [1]; [10]): 4
- diameter of the colonies, Aspergillus niger (Aspergillus niger): 0 mm
- diameter of the colonies, Stemphylium ilicis (Stemphylium ilicis): 0 mm
- mycelium growth, Pythium ultimum, vapor phase (Pythium ultimum [5]): no mycelium growth
- mycelium growth, Rhizoctonia solani, vapor phase (Rhizoctonia solani [6]): no mycelium growth

Structure (SMILES): C[S+]([O-])c1nnc(C(Cl)Cl)s1 (centres unmarked) [Compound 3, 2-dichloromethyl-5-methylsulfinyl-1,3,4-thiadiazole]
- minimal effective concentration (Pythium ultimum [4]): 10 µg/mL
- Root evaluation (1-4) (Pythium ultimum [1]; [8]): 4
- Root evaluation (1-4) (Pythium ultimum [1]; [9]): 4
- Root evaluation (1-4) (Pythium ultimum [1]; [10]): 4
- Number of sound peas after 3 wks. (Rhizoctonia solani [2]; [8]): 0
- Root evaluation (1-4) (Rhizoctonia solani [2]; [9]): 1
- Root evaluation (1-4) (Rhizoctonia solani [2]; [10]): 4
- Sound plants in % (Damping-off Fungi): 100%
- diameter of the colonies, Aspergillus niger (Aspergillus niger): 50 mm
- diameter of the colonies, Stemphylium ilicis (Stemphylium ilicis): 0 mm
- Nematocidal action in % (Meloidogyne incognita) (Meloidogyne incognita; [13]): 100%
- Nematocidal action in % (Meloidogyne incognita) (Meloidogyne incognita; [14]): 100%

Structure (SMILES): CC[S+]([O-])c1nnc(C(Cl)Cl)s1 (centres unmarked) [Compound 4, 2-dichloromethyl-5-ethylsulfinyl 1,3,4-thiadiazole]
- minimal effective concentration (Pythium ultimum [4]): 100 µg/mL
- Nematocidal action in % (Meloidogyne incognita) (Meloidogyne incognita; [13]): 96%
- Nematocidal action in % (Meloidogyne incognita) (Meloidogyne incognita; [14]): 99%

Structure (SMILES): CCC[S+]([O-])c1nnc(C(Cl)Cl)s1 (centres unmarked) [Compound 5, 2-dichloromethyl-5-propylsulfinyl-1,3,4-thiadiazole]
- minimal effective concentration (Pythium ultimum [4]): 100 µg/mL
- Nematocidal action in % (Meloidogyne incognita) (Meloidogyne incognita; [13]): 90%
- Nematocidal action in % (Meloidogyne incognita) (Meloidogyne incognita; [14]): 98%

Structure (SMILES): C[S+]([O-])c1nnc(C(Cl)(Cl)Cl)s1 (centres unmarked) [Compound 8, 2-trichloromethyl-5-methylsulfinyl-1,3,4-thiadiazole]
- minimal effective concentration (Pythium ultimum [4]): 20 µg/mL
- Root evaluation (1-4) (Pythium ultimum [1]; [8]): 1
- Root evaluation (1-4) (Pythium ultimum [1]; [9]): 4
- Root evaluation (1-4) (Pythium ultimum [1]; [10]): 4
- Root evaluation (1-4) (Rhizoctonia solani [2]; [8]): 4
- Root evaluation (1-4) (Rhizoctonia solani [2]; [9]): 4
- Root evaluation (1-4) (Rhizoctonia solani [2]; [10]): 4
- diameter of the colonies, Aspergillus niger (Aspergillus niger): 0 mm
- diameter of the colonies, Stemphylium ilicis (Stemphylium ilicis): 0 mm

Structure (SMILES): CC[S+]([O-])c1nnc(C(Cl)(Cl)Cl)s1 (centres unmarked) [Compound 9, 2-trichloromethyl-5-ethylsulfinyl-1,3,4-thiadiazole]
- minimal effective concentration (Pythium ultimum [4]): 200 µg/mL
- Root evaluation (1-4) (Rhizoctonia solani [2]; [8]): 4
- Root evaluation (1-4) (Rhizoctonia solani [2]; [9]): 4
- Root evaluation (1-4) (Rhizoctonia solani [2]; [10]): 4
- diameter of the colonies, Aspergillus niger (Aspergillus niger): 0 mm
- diameter of the colonies, Stemphylium ilicis (Stemphylium ilicis): 0 mm

Structure (SMILES): CCS(=O)(=O)c1nnc(C(Cl)Cl)s1 [Compound 18, 2-dichloromethyl-5-ethylsulfonyl-1,3,4-thiadiazole]
- minimal effective concentration (Pythium ultimum [4]): > 200 µg/mL
- diameter of the colonies, Aspergillus niger (Aspergillus niger): 0 mm
- diameter of the colonies, Stemphylium ilicis (Stemphylium ilicis): 0 mm
- Nematocidal action in % (Meloidogyne incognita) (Meloidogyne incognita; [13]): 61%
- Nematocidal action in % (Meloidogyne incognita) (Meloidogyne incognita; [14]): 90%

Structure (SMILES): CCCS(=O)(=O)c1nnc(C(Cl)Cl)s1 [Compound 19, 2-dichloromethyl-5-propylsulfonyl-1,3,4-thiadiazole]
- minimal effective concentration (Pythium ultimum [4]): 100 µg/mL
- diameter of the colonies, Aspergillus niger (Aspergillus niger): 0 mm
- diameter of the colonies, Stemphylium ilicis (Stemphylium ilicis): 0 mm
- Nematocidal action in % (Meloidogyne incognita) (Meloidogyne incognita; [13]): 72%
- Nematocidal action in % (Meloidogyne incognita) (Meloidogyne incognita; [14]): 82%

Structure (SMILES): CCCS(=O)(=O)c1nnc(C(Cl)(Cl)Cl)s1 [Compound 23, 2-trichloromethyl-5-propylsulfonyl-1,3,4-thiadiazole]
- minimal effective concentration (Pythium ultimum [4]): 150 µg/mL
- Root evaluation (1-4) (Rhizoctonia solani [2]; [8]): 1
- Root evaluation (1-4) (Rhizoctonia solani [2]; [9]): 3
- Root evaluation (1-4) (Rhizoctonia solani [2]; [10]): 4
- diameter of the colonies, Aspergillus niger (Aspergillus niger): 0 mm
- diameter of the colonies, Stemphylium ilicis (Stemphylium ilicis): 0 mm

Structure (SMILES): CS(=O)(=O)c1nnc(C(Br)Br)s1 [Compound 32, 2-dibromomethyl-5-methylsulfonyl-1,3,4-thiadiazole]
- minimal effective concentration (Pythium ultimum [4]): 20 µg/mL
- diameter of the colonies, Aspergillus niger (Aspergillus niger): 0 mm
- diameter of the colonies, Stemphylium ilicis (Stemphylium ilicis): 0 mm

Structure (SMILES): C[S+]([O-])c1nnc(C(F)(F)F)s1 (centres unmarked) [Compound 35, 2-trifluoromethyl-5-methylsulfinyl-1,3,4-thiadiazole]
- minimal effective concentration (Pythium ultimum [4]): 10 µg/mL
- mycelium growth, Pythium ultimum, vapor phase (Pythium ultimum [5]): no mycelium growth
- mycelium growth, Rhizoctonia solani, vapor phase (Rhizoctonia solani [6]): no mycelium growth

Structure (SMILES): CC[S+]([O-])c1nnc(C(F)(F)F)s1 (centres unmarked) [Compound 36, 2-trifluoromethyl-5-ethylsulfinyl-1,3,4-thiadiazole]
- minimal effective concentration (Pythium ultimum [4]): 10 µg/mL
- mycelium growth, Pythium ultimum, vapor phase (Pythium ultimum [5]): no mycelium growth
- mycelium growth, Rhizoctonia solani, vapor phase (Rhizoctonia solani [6]): no mycelium growth

Structure (SMILES): CCS(=O)(=O)c1nnc(C(F)(F)F)s1 [Compound 40, 2-trifluoromethyl-5-ethylsulfonyl-1,3,4-thiadiazole]
- minimal effective concentration (Pythium ultimum [4]): 10 µg/mL
- mycelium growth, Pythium ultimum, vapor phase (Pythium ultimum [5]): no mycelium growth
- mycelium growth, Rhizoctonia solani, vapor phase (Rhizoctonia solani [6]): no mycelium growth

Structure (SMILES): O=C1C2CC=CCC2C(=O)N1SC(Cl)(Cl)Cl (centres unmarked) [N-(trichloromethylthio)-cyclohex-4-ene-1,2-dicarboximide]
- Root evaluation (1-4) (Pythium ultimum [1]; [7]): 1
- Number of sound peas after 3 wks. (Pythium ultimum [1]; [7]): 13
- No. of attacked plants after 3 weeks [3, 11]: 4
- No. of attacked plants after 3 weeks [3, 12]: 4
- No. of attacked plants after 3 weeks [3, 7]: 4
